ChEMBL document CHEMBL5244202, “Structural evolution of toll-like receptor 7/8 agonists from imidazoquinolines to imidazoles” (RSC Med Chem, 2021)

Each molecule was assayed against T1, Toll-like receptor 7 (Homo sapiens, UniProt Q9NYK1) (assay: Agonist activity at human TLR7 by reporter cell based assay).
T1 sequence (Q9NYK1 whole entry): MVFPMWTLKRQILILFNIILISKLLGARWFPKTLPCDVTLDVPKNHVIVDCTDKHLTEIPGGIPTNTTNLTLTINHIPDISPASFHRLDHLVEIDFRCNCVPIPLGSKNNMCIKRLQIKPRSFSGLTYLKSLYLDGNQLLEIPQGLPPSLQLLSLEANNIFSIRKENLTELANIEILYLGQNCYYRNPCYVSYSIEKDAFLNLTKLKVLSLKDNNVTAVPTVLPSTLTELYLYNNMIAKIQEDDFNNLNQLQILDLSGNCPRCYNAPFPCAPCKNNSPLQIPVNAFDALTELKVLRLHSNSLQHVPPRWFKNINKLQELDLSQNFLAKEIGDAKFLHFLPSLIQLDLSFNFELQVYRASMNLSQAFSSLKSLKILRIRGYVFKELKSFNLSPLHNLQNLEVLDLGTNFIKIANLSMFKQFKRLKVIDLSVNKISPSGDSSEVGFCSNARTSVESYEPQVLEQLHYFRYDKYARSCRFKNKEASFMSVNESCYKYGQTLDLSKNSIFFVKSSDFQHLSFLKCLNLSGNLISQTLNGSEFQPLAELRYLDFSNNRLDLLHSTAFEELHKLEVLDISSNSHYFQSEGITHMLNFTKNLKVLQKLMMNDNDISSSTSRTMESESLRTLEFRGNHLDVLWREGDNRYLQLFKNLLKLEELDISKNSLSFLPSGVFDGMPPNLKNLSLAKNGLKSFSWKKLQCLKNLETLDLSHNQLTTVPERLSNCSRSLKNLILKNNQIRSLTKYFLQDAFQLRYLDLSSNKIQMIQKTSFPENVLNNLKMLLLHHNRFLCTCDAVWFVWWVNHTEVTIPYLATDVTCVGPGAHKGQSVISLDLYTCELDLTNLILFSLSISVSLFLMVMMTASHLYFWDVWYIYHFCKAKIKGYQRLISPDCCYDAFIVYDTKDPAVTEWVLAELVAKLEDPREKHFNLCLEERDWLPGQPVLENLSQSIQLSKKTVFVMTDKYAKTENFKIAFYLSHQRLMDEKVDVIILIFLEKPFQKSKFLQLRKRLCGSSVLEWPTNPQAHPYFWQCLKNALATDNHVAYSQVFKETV

Row | Structure (SMILES) | EC50 [nM]
1 | CCCCc1nc2c(N)nc3ccccc3c2n1CCCN(Cc1cccc(C(=O)OC)c1)C(=O)CN1CCN(CCO)CC1 | 501
2 | CCCC[C@@H](CCO)Nc1nc(N)nc(C)c1Cc1ccc(CC(=O)OCC2CCN(C)CC2)cc1F | 39.8
3 | CCCCc1nc2c(N)nc3ccccc3c2n1CCCN(CCCN1CCOCC1)Cc1cccc(C(=O)OC)c1 | 251
4 | CCCCCNc1nc(N)nc(C)c1Cc1cccc(CC(=O)OCCCCN(C)C)c1 | 31.6
5 | CCCCc1nc2c(N)nc3ccccc3c2n1CCCN(Cc1cccc(C(=O)OC)c1)C(=O)CN1CCN(C)CC1 | 79.4
6 | CCCCc1nc2c(N)nc3ccccc3c2n1CCCN(Cc1cccc(C(=O)OC)c1)C(=O)CN1CCN(S(C)(=O)=O)CC1 | 794
7 | CCCCc1nc2c(N)nc3ccccc3c2n1CCCN(Cc1cccc(C(=O)OC)c1)C1CCN(C)CC1 | 316
8 | CCCCCNc1nc(N)nc(C)c1CCCN(Cc1ccc(CC(=O)OC)cc1)C(=O)CC1CCN(C)CC1 | 794
9 | CCCCc1nc2c(N)nc3ccccc3c2n1CCCN(Cc1cccc(C(=O)OC)c1)C(=O)CN1CCCN(C(=O)NCC)CC1 | 1260
10 | CCCCc1nc2c(N)nc3ccccc3c2n1CCCN(CCCN1CCN(C)CC1)Cc1cccc(C(=O)OC)c1 | 251
11 | CCCCc1nc2c(N)nc3ccccc3c2n1CCCN(CCCN(C)CC)Cc1cccc(C(=O)OC)c1 | 158
12 | CCCC[C@@H](CCO)Nc1nc(N)nc(C)c1Cc1ccc(CC(=O)OCCCCN(C)C)cc1 | 25.1
13 | CCCCc1nc2c(N)nc3ccccc3c2n1CCCN(Cc1cccc(C(=O)OC)c1)C(=O)CN1CCCCCC1 | 79.4
14 | CCCCCNc1nc(N)nc(C)c1CCCN(Cc1cccc(CC(=O)OC)c1)C(=O)CN1CCC[C@@H]1C(=O)OC | 631

Second part, the molecule after the results:

Row | EC50 [nM] | Structure (SMILES)
15 | 251 | CCCCc1nc2c(N)nc3ccccc3c2n1CCCN(CCCN(C)C)Cc1cccc(C(=O)OC)c1
16 | 79.4 | CCCCc1nc2c(N)nc3ccccc3c2n1CCCN(Cc1cccc(C(=O)OC)c1)C(=O)CN1CCCCC1
17 | 200 | CCCC[C@@H](CCO)Nc1nc(N)nc(C)c1Cc1ccc(CC(=O)OCCCCN(C)C)cc1F
18 | 631 | CCCCc1nc2c(N)nc3ccccc3c2n1CCCN(Cc1cccc(C(=O)OC)c1)C(=O)CN1CCCN(S(C)(=O)=O)CC1
19 | 158 | COCCc1nc2c(N)nc3ccccc3c2n1CCCN(Cc1ccc(CC(=O)OC)cc1)C(=O)CCN(C)C
20 | 251 | CCCCc1nc2c(N)nc3ccccc3c2n1CCCN(Cc1cccc(C(=O)OC)c1)C(=O)CN1CCCN(C)CC1
21 | 126 | CCCCc1nc2c(N)nc3ccccc3c2n1CCCN(Cc1cccc(C(=O)OC)c1)C(=O)CN(C)C1CCOCC1
22 | 126 | CCCCc1nc2c(N)nc3ccccc3c2n1CCCN(Cc1cccc(C(=O)OC)c1)C(=O)CN(C)CCCC
23 | 631 | CCCCCNc1nc(N)nc(C)c1CCCN(Cc1ccc(CC(=O)OC)cc1)C(=O)CN1CCCCC1
24 | 398 | CCCCc1nc2c(N)nc3ccccc3c2n1CCCN(Cc1cccc(C(=O)OC)c1)C(=O)CN1CCCOCC1
25 | 398 | CCCCc1nc2c(N)nc3ccccc3c2n1CCCN(Cc1cccc(C(=O)OC)c1)C(=O)CN1CCC(O)C1 (centres undefined)
26 | 39.8 | CCCCc1nc2c(N)nc3ccccc3c2n1CCCN(Cc1cccc(C(=O)OC)c1)C(=O)CN(C)C
27 | 31.6 | CCCC[C@@H](CCO)Nc1nc(N)nc(C)c1Cc1ccc(CC(=O)OCCC2CCN(C)CC2)cc1F
28 | 1260 | CCCCc1nc2c(N)nc3ccccc3c2n1CCCN(Cc1cccc(C(=O)OC)c1)C(=O)CN1CCN(C(C)=O)CC1
29 | 398 | CCCCc1nc2c(N)nc3ccccc3c2n1CCCN(Cc1cccc(C(=O)OC)c1)C(=O)CN1CC[C@@H](O)C1
30 | 1260 | CCCC[C@@H](CO)Nc1nc(N)nc(C)c1Cc1ccc(CC(=O)OCCCCN(C)C)cc1
31 | 251 | CCCCc1nc2c(N)nc3ccccc3c2n1CCCN(Cc1cccc(C(=O)OC)c1)C(=O)CN1CCC1
32 | 63.1 | CCCCc1nc2c(N)nc3ccccc3c2n1CCCN(Cc1cccc(C(=O)OC)c1)C(=O)CN1CCCC1
33 | 1580 | CCCCc1nc2c(N)nc3ccccc3c2n1CCCN(Cc1cccc(C(=O)OC)c1)C(=O)CN(CCO)CCO
34 | 25.1 | CCCC[C@@H](CCO)Nc1nc(N)nc(C)c1Cc1ccc(CC(=O)OCCCCN2CCN(C)CC2)cc1F
